According to patent publication US20090209613A1, “Use of allymercaptocaptopril for treating or preventing obesity and obesity related diseases” (Yeda Researc And Development Co. Ltd. at the Weizmann …, priority 2005, published 2009):

Columns and labels:
[1] = cited from earlier work
[2] = Food consumption of SHROB rats fed drug-supplemented chow; type: in vivo, rat; conditions: throughout the experiment, FIG. 2
Method: (§1) Animals: Obese spontaneously […] rats with a naturally occurring knockout of the leptin receptor (SHROB; Koletsky et al., pp. 143-158 in: Sima AAF and Shafrir (eds) Animal Models of Diabetes: A Primer, Harwood, Singapore, 2001) were used. Adult (4-5 months old) male and female SHROB were maintained essentially as described by Velliquette and Emsberger (JPET 307: 1104-1111, 2003). Briefly, animals were housed individually at a constant temperature of 21° C. on a 12:12 hours light/dark cycle. The animals were given ad libitum access to food (Teklad 8664 rat chow) and were maintained for a period of 60 days. The procedures were carried out in accordance with applicable laws and accepted guidelines for animal welfare.
(§2) Either CPSSA or captopril were dissolved in a 20% ethanol solution, chilled on ice, and were then thoroughly mixed with powdered rat chow in equivalent molar amounts of 1.107 and 0.827 gram/kg, respectively.
(§3) Eight SHROB rats (4 males, 4 females) were used in each treatment group. Animals were fed with chow supplemented with either CPSSA or captopril, or with standard (non-supplemented) chow diet, which served as a control. Measurements of body weight, food consumption and blood pressure were conducted 3 times a week for the duration of the experiment.

[3] = in vivo; cited from earlier work
[4] = Systolic blood pressure of SHROB rats fed drug-supplemented chow; type: in vivo, rat
Method: Briefly, animals were housed individually at a constant temperature of 21° C. on a 12:12 hours light/dark cycle. […] The procedures were carried out in accordance with applicable laws and accepted guidelines for animal welfare.
as §3

[5] = Body weight gain of SHROB rats fed drug-supplemented chow; type: in vivo, rat; conditions: for effect on body weight gain: compared with non-treated control, FIG. 1
Method: as §1, §2, §3

[6] = day 20, drug in chow ad libitum
[7] = day 53, drug in chow ad libitum

SMILES: C=CCSSC[C@H](C)C(=O)N1CCC[C@H]1C(=O)O [CPSSA, Allylmercaptocaptopril]
- stability in blood or plasma ([1]; blood or plasma of mammals): stable in blood or plasma of mammals
- reaction with serum proteins ([1]; serum proteins): reacts very sluggishly with serum proteins
- food uptake [2]: no differences were observed in the food uptake
- blood pressure [3]: significantly decreases blood pressure
- serum level of insulin [3]: reduces
- serum level of triglycerides [3]: reduces
- effect on blood pressure ([4]; FIG. 3): substantially reduced the blood pressure
- average systolic blood pressure ([4]; day 14): 165.6
- average systolic blood pressure ([4]; day 28): 146.8
- average systolic blood pressure ([4]; day 56): 140.3
- effect on body weight gain [5]: effectively prevented body weight gain
- average body weight gain [5, 6]: 0.6%
- average body weight gain [5, 7]: −0.1%

SMILES: C[C@H](CS)C(=O)N1CCC[C@H]1C(=O)O [captopril]
- food uptake [2]: no differences were observed in the food uptake
- average systolic blood pressure ([4]; day 14): 165.5
- average systolic blood pressure ([4]; day 28): 159.3
- average systolic blood pressure ([4]; day 56): 159.7
- effect on body weight gain [5]: had no effect on body weight gain
- average body weight gain [5, 6]: 7.3%
- average body weight gain [5, 7]: 11.8%
